Results as given in ChEMBL document CHEMBL3045633, “Synthesis and antimicrobial activity of newer indole semicarbazones” (2012).
Converted amounts (≈) assume the structure as drawn.

How the values were obtained:
Format in all cases: functional
Pseudomonas aeruginosa = experiment: Antibacterial activity against Pseudomonas aeruginosa after 24 hr by broth dilution method
Staphylococcus aureus = experiment: Antibacterial activity against Staphylococcus aureus after 24 hr by broth dilution method
Candida albicans [1] = experiment: Antifungal activity against Candida albicans at 150 ug after 48 hr by agar cup bioassay; conditions: read-out: DIZ
Escherichia coli = experiment: Antibacterial activity against Escherichia coli after 24 hr by broth dilution method
Diutina rugosa [2] = experiment: Antifungal activity against Candida rugosa at 100 ug after 48 hr by agar cup bioassay; conditions: read-out: DIZ
Klebsiella pneumoniae = experiment: Antibacterial activity against Klebsiella pneumoniae after 24 hr by broth dilution method
Bacillus subtilis = experiment: Antibacterial activity against Bacillus subtilis after 24 hr by broth dilution method
[3] = system: Staphylococcus epidermidis; experiment: Antibacterial activity against Staphylococcus epidermidis after 24 hr by broth dilution method
Diutina rugosa [4] = experiment: Antifungal activity against Candida rugosa at 150 ug after 48 hr by agar cup bioassay; conditions: read-out: DIZ
Candida albicans [5] = experiment: Antifungal activity against Candida albicans at 100 ug after 48 hr by agar cup bioassay; conditions: read-out: DIZ
Candida albicans [6] = experiment: Antifungal activity against Candida albicans at 50 ug after 48 hr by agar cup bioassay; conditions: read-out: DIZ
Diutina rugosa [7] = experiment: Antifungal activity against Candida rugosa at 50 ug after 48 hr by agar cup bioassay; conditions: read-out: DIZ

| SMILES | MIC (Pseudomonas aeruginosa) [µg/mL] | MIC (Staphylococcus aureus) [µg/mL] | zone of inhibition at 150 µg/disc (Candida albicans [1]) [mm] | MIC (Escherichia coli) [µg/mL] | zone of inhibition at 100 µg/disc (Diutina rugosa [2]) [mm] | MIC (Klebsiella pneumoniae) [µg/mL] | MIC (Bacillus subtilis) [µg/mL] | MIC [3] [µg/mL] | zone of inhibition at 150 µg/disc (Diutina rugosa [4]) [mm] | zone of inhibition at 100 µg/disc (Candida albicans [5]) [mm] | zone of inhibition at 50 µg/disc (Candida albicans [6]) [mm] | zone of inhibition at 50 µg/disc (Diutina rugosa [7]) [mm] |
| --- | --- | --- | --- | --- | --- | --- | --- | --- | --- | --- | --- | --- |
| NC(=O)N/N=C/c1c(-c2ccccc2)n(CC(=O)c2ccccc2)c2ccccc12 | 100 (≈ 252 µM) | 130 (≈ 328 µM) | 8 | 100 (≈ 252 µM) | 0 | 115 (≈ 290 µM) | 125 (≈ 315 µM) | 110 (≈ 277 µM) | 8 | 0 |  |  |
| NC(=O)N/N=C/c1c(-c2ccccc2)n(CC(=O)c2ccc(Cl)cc2)c2ccccc12 | 115 (≈ 267 µM) | 130 (≈ 302 µM) | 10 | 125 (≈ 290 µM) | 5 | 120 (≈ 278 µM) | 110 (≈ 255 µM) | 140 (≈ 325 µM) | 12 | 4 |  |  |
| NC(=O)N/N=C/c1c(-c2ccccc2)n(CC(=O)c2ccc(Br)cc2)c2ccccc12 | 135 (≈ 284 µM) | 125 (≈ 263 µM) |  | 120 (≈ 252 µM) |  | 130 (≈ 273 µM) | 105 (≈ 221 µM) | 130 (≈ 273 µM) |  |  |  |  |
| Cc1ccc(C(=O)Cn2c(-c3ccccc3)c(/C=N/NC(N)=O)c3ccccc32)cc1 | > 150 | 130 (≈ 317 µM) | 10 | 130 (≈ 317 µM) | 7 | > 150 | > 150 | 125 (≈ 305 µM) | 10 | 7 |  |  |
| COc1ccc(C(=O)Cn2c(-c3ccccc3)c(/C=N/NC(N)=O)c3ccccc32)cc1 | 145 (≈ 340 µM) | 110 (≈ 258 µM) | 10 | 140 (≈ 328 µM) | 8 | 120 (≈ 281 µM) | 140 (≈ 328 µM) | 130 (≈ 305 µM) | 10 | 8 |  |  |
| NC(=O)N/N=C/c1c(-c2ccccc2)n(CC(=O)c2ccc([N+](=O)[O-])cc2)c2ccccc12 | 75 (≈ 170 µM) | 125 (≈ 283 µM) | 14 | 130 (≈ 294 µM) | 10 | 37.5 (≈ 84.9 µM) | 120 (≈ 272 µM) | 110 (≈ 249 µM) | 14 | 9 |  |  |
| NC(=O)N/N=C/c1c(-c2ccccc2)n(CC(=O)c2ccc(-c3ccccc3)cc2)c2ccccc12 | 105 (≈ 222 µM) | 110 (≈ 233 µM) |  | 120 (≈ 254 µM) |  | 135 (≈ 286 µM) | > 150 | 130 (≈ 275 µM) |  |  |  |  |
| C=CCn1c(-c2ccccc2)c(/C=N/NC(N)=O)c2ccccc21 | 125 (≈ 393 µM) | 125 (≈ 393 µM) | 15 | 120 (≈ 377 µM) | 7 | > 150 | 140 (≈ 440 µM) | 115 (≈ 361 µM) | 12 | 10 |  |  |
| CCCCn1c(-c2ccccc2)c(/C=N/NC(N)=O)c2ccccc21 | 120 (≈ 359 µM) | 125 (≈ 374 µM) | 12 | 140 (≈ 419 µM) | 9 | 110 (≈ 329 µM) | > 150 | 135 (≈ 404 µM) | 10 | 9 |  |  |
| C#CCn1c(-c2ccccc2)c(/C=N/NC(N)=O)c2ccccc21 | > 150 | > 150 | 13 | > 150 | 10 | 110 (≈ 348 µM) | 125 (≈ 395 µM) | > 150 | 15 | 8 |  |  |
| C[C@@H]1[C@H](O)[C@@H](C)/C=C/C=C/C=C/C=C/C=C/C=C/C=C/[C@H](O[C@@H]2O[C@H](C)[C@@H](O)[C@H](N)[C@@H]2O)C[C@@H]2O[C@](O)(C[C@@H](O)C[C@@H](O)[C@H](O)CC[C@@H](O)C[C@@H](O)CC(=O)O[C@H]1C)C[C@H](O)[C@H]2C(=O)O [AMPHOTERICIN B] |  |  |  |  |  |  |  |  |  |  | 23.5 | 21 |
| O=C(O)c1cn(C2CC2)c2cc(N3CCNCC3)c(F)cc2c1=O [CIPROFLOXACIN] |  |  |  | 20 (≈ 60.4 µM) |  | 25 (≈ 75.4 µM) | 24 (≈ 72.4 µM) | 22 (≈ 66.4 µM) |  |  |  |  |
